For data set [1] the following is noted: in vivo; cited from earlier work.
Data set [2] has as its system angiotensin II. Particulars: binding experiments, functional assays and in vivo tests; cited from earlier work.
The test system of data set [3] is guanylate cyclase. Particulars: cited from earlier work.
The test system of data set [4] is non-renal, vascular angiotensin II receptors. Nature of the data set: Assay D: AII Pressor Response during chronic infusion of conjugate. The conditions noted are these: for AII Pressor Response (MAP): AII 100 ng/kg bolus. Type of data set: in vivo, spontaneously hypertensive rats (SHR). The method, then:
(§1) This in vivo experiment was conducted to characterize the effects of the Example 81 conjugate on spontaneously hypertensive rats (SHR) by acute administration i.v. and by chronic administration i.v. The Example 81 compound or saline vehicle was infused continuously for four days in SHR. Mean arterial pressure was measured (Gould Chart Recorder, model 3800; Statham P23Db pressure transducer) via an indwelling femoral artery catheter between 10:00 A. M. and 2:00 P. M. each day. The Example 81 conjugate (10 mg/hr) or saline was infused via a jugular vein catheter with a Harvard infusion pump. […] A test was conducted to determine whether the Example 81 conjugate would antagonize non-renal, vascular angiotensin II receptors. In this test AII was administered by bolus injection (100 ng/kg) to the SHR rats (described above) on the control day and on days 1, 2 and 3 during conjugate infusion.

The test system of data set [5] is response to angiotensin II (urinary sodium excretion). Nature of the data set: Assay E: Urinary Sodium Excretion, acute administration with AII infusion. Type of data set: in vivo, male Sprague-Dawley rats, conscious. Particulars: for Urinary Sodium Excretion: means±SE. On the procedure:
(§2) antagonist compound (Ex. #5) and a glutamyl conjugate (Ex. #81) of the Ex. #5 AII antagonist compound to determine the renal selectivity of the conjugate. Male Sprague-Dawley rats (300-350 g body weight) had catheters implanted into the femoral artery and vein under chloral hydrate anesthesia (400 mg/kg, i.p.). After 2 to 4 days of recovery, on the experimental day, a urinary bladder catheter was implanted under methohexital anesthesia (50 mg/kg, i.p.). Rats were placed in a restraint device to allow for urine collection and mean arterial pressure measurements. After 1-2 hours of recovery, in conscious rats, an isotonic saline infusion (50 μl/min) was started and continued for the duration of the experiment. After one hour equilibration to the saline infusion, a 20 minute control urine and mean arterial pressure collection were obtained. Then angiotensin II was infused at 20 ng/min for 25 minutes. After 5 minutes of angiotensin II infusion, a 20 minute experimental collection was made. Finally, 5 minutes after the end of angiotensin II infusion, a 20 minute recovery collection was obtained. In separate groups of rats, vehicle (0.3 ml isotonic saline, i.v. bolus), Example #5 angiotensin II antagonist compound (100 mg/kg, i.v. bolus), or Example #81 conjugate (100 mg/kg, i.v. bolus) was administered 1-2 minutes prior to onset of angiotensin II infusion. […] Results are shown in Tables XIII and XIV and also in FIGS. 3 and 4. Data are presented as means±SE. Repeated measures analysis of variance was used for main effects and interactions and Tukey's HSD test was used for pairwise comparisons among means. Statistical significance was defined as p<0.05.

The subject of data set [6] is response to angiotensin II (mean arterial pressure). Nature of the data set: Assay E: Mean Arterial Pressure, acute administration with AII infusion. Type of data set: in vivo, male Sprague-Dawley rats, conscious. The conditions noted are these: for Mean Arterial Pressure: n = 6, means±SE. On the procedure: as §2
For data set [7], the system named is spontaneously hypertensive rats (SHR). In words: Assay D: Mean Arterial Pressure, chronic infusion of conjugate. Type of data set: in vivo. The method, then: as §1
The test system of data set [8] is γ-glutamyl transpeptidase. The conditions noted are these: dogs; cited from earlier work.
Data set [9] concerns angiotensin II receptors. The conditions noted are these: cited from earlier work.
The subject of data set [10] is kidney. Particulars: normal subjects; cited from earlier work.
The subject of data set [11] is dopa-decarboxylase. Particulars: in vivo; cited from earlier work.
The mark [12] stands for this setting: Control day (baseline before infusion).
Setting [13] is: 100 mg/kg i.v. bolus, Recovery after AII infusion.
The mark [14] stands for this setting: 100 mg/kg i.v. bolus, during AII infusion 20 ng/min, * in table.
Where [15] appears, read: 100 mg/kg, i.v. bolus, AII 20 ng/min.

Regarding `CCCCc1ccc(NNC(=O)CCC(NC(C)=O)C(=O)O)nc1` (stereo not drawn), the renal vasodilation entry in [1] was “provided selective renal vasodilation”.

Take `CCCCc1nc(Cl)c(CC(=O)O)n1Cc1ccccc1[N+](=O)[O-]` [2-butyl-4-choloro-1-(2-nitrobenzyl)imidazole-5-acetic acid]: in data set [2], the “angiotensin II antagonist activity” value was “specific competitive angiotensin II antagonist activity”.

As for `CCCCc1ccc(NN)nc1` [2-hydrazino-5-n-butylpyridine], the guanylate cyclase activity entry in data set [3] is listed as “stimulates guanylate cyclase activity”.

In the case of `CCCCc1nc(Cl)c(CC(=O)O)n1Cc1ccccc1Cl` [2-n-butyl-4-chloro-1-(2-chlorobenzyl)imidazole-5-acetic acid], the “angiotensin II antagonist activity” value in data set [2] is recorded as “specific competitive angiotensin II antagonist activity”.

Consider `CCCCc1nc(Cl)c(CO)n1Cc1ccc(-c2ccccc2C(=O)NNC(=O)CC[C@H](NC(C)=O)C(=O)O)cc1` [Example 81, N-acetyl-L-glutamic acid, 5-[[4'-[2-butyl-4-chloro-5-(hydroxymethyl)-1H-imidazol-1-ylmethyl][1,1'-biphenyl]-2-yl]carbonyl]hydrazide], for which the “systemic angiotensin II receptor antagonism” value in [4] (10 mg/hr i.v. infusion, days 1, 2 and 3) is recorded as “No evidence for systemic angiotensin II receptor antagonism was observed”. For the same compound, the “AII Pressor Response (MAP)” value is reported as 45 mm Hg in data set [4] (10 mg/hr i.v. infusion, day 1); 65 mm Hg in data set [4] (10 mg/hr i.v. infusion, day 2); 60 mm Hg in data set [4] (10 mg/hr i.v. infusion, day 3); 44 mm Hg in [4] (setting [12]). Also, the “Urinary Sodium Excretion” value in [5] (setting [13]) worked out at 1.8 ± 0.4 μEq/min/100 g BW; in data set [5] (setting [14]), 4.1 ± 1.3 μEq/min/100 g BW; in data set [5] (Control period (before dosing)), 1.3 ± 0.3 μEq/min/100 g BW. In addition, the “antinatriuretic (urinary sodium excretion) response to angiotensin II” value in data set [5] (setting [15]) is on record as “prevented the antinatriuretic response to angiotensin II”. Further, in data set [5] (setting [15]), the “urinary sodium excretion during angiotensin II infusion” value was “actually increased urinary sodium excretion”. The results for the “Mean Arterial Pressure” value in data set [6] (setting [13]), in [6] (setting [14]) and in data set [6] (Control period (before dosing)) were 121 ± 4 mm Hg, 151 ± 4 mm Hg and 117 ± 3 mm Hg, respectively. Further, in data set [6] (setting [15]), the “mean arterial pressure response to angiotensin II” value is “had no effect on the mean arterial pressure response”. In addition, in data set [7] (10 mg/hr i.v. infusion, SHR), the “mean arterial pressure as compared to saline vehicle control” value is “lowered mean arterial pressure as compared to the saline vehicle control”. Also, the “Mean Arterial Pressure (MAP)” value came to 148 mm Hg in data set [7] (10 mg/hr i.v. infusion, day 1); 135 mm Hg in data set [7] (10 mg/hr i.v. infusion, day 2); 140 mm Hg in data set [7] (10 mg/hr i.v. infusion, day 3); 163 mm Hg in data set [7] (setting [12]).

In the case of `N[C@@H](CCC(=O)NCCc1ccc(O)c(O)c1)C(=O)O` [L-γ-glutamyl amide of dopamine], the “generation of dopamine in vivo” value in [8] is recorded as “generate dopamine in vivo by specific enzymatic cleavage by γ-glutamyl transpeptidase”.

As to `CNCC(=O)N[C@@H](CCCN=C(N)N)C(=O)N[C@H](C(=O)N[C@@H](Cc1ccc(O)cc1)C(=O)N[C@H](C(=O)N[C@@H](Cc1cnc[nH]1)C(=O)N1CCC[C@H]1C(=O)N[C@@H](C)C(=O)O)C(C)C)C(C)C` [Saralasin], in data set [9], the residual agonist activity result was “have a significant residual agonist activity”.

`N[C@@H](CCC(=O)N[C@@H](Cc1ccc(O)c(O)c1)C(=O)O)C(=O)O` [gludopa, γ-L-glutamyl-L-dopa]: in data set [10], the kidney specificity entry is given as “relatively specific for the kidney”; the “renal blood flow, glomerular filtration and urinary sodium excretion” value was “increase renal blood flow, glomerular filtration and urinary sodium excretion in normal subjects”. Moreover, the “blockade of activity by the dopa-decarboxylase inhibitor carbidopa” value in data set [11] is “activity can be blocked by the dopa-decarboxylase inhibitor carbidopa”.

For “angiotensin II: an octapeptide which is the primary active species of this system (DRVYIHPF; Angiotensin-2; UniProt P01019 25-32, looked up) [reference compound]”, in [5] (AII 20 ng/min for 25 minutes), the “effect of angiotensin II infusion on urinary sodium excretion” value is “decreased urinary sodium excretion”. The “effect of angiotensin II infusion on mean arterial pressure” value in [6] (AII 20 ng/min for 25 minutes) is “increased mean arterial pressure”.

Values taken from US5302610A, “Renal-selective biphenylmethyl imidazole angiotensin II antagonists for treatment of hypertension” (G. D. Searle & Co., priority 1991, dated 1994).
